How the values were obtained:
Experiment in all cases: Postemergent herbicidal activity, greenhouse
Type in all cases: in vivo
[1] = tested on: AMARE Amaranthus retroflexus L. (redroot pigweed)
Protocol: (§1) Evaluation of Postemergent Herbicidal Activity. Seeds or nutlets of the desired test plant species were planted in Sun Gro Metro-Mix® 360 planting mixture, which typically has a pH of 6.0 to 6.8 and an organic matter content of about 30 percent, in plastic pots with a surface area of 64 square centimeters (cm^2). When required to ensure good germination and healthy plants, a fungicide treatment and/or other chemical or physical treatment was applied. The plants were grown for 7-21 days (d) in a greenhouse with an approximate 15 hour (h) photoperiod which was maintained at about 23-29° C. during the day and 22-28° C. during the night. Nutrients and water were added on a regular basis and supplemental lighting was provided with overhead metal halide 1000-Watt lamps as necessary. The plants were employed for testing when they reached the first or second true leaf stage.
(§2) A weighed amount, determined by the highest rate to be tested, of each test compound was placed in a 25 milliliter (mL) glass vial and was dissolved in 4 mL of a 97:3 volume per volume (v/v) mixture of acetone and dimethyl sulfoxide (DMSO) to obtain concentrated stock solutions. […] The concentrated stock solutions obtained were diluted with 20 mL of an aqueous mixture containing acetone, water, isopropyl alcohol, DMSO, Atplus 411F crop oil concentrate, and Triton® X-155 surfactant in a 48.5:39:10:1.5:1.0:0.02 v/v ratio to obtain spray solutions containing the highest application rates. Additional application rates were obtained by serial dilution of 12 mL of the high rate solution into a solution containing 2 mL of a 97:3 v/v mixture of acetone and DMSO and 10 mL of an aqueous mixture containing acetone, water, isopropyl alcohol, DMSO, Atplus 411F crop oil concentrate, and Triton X-155 surfactant in a 48.5:39:10:1.5:1.0:0.02 v/v ratio to obtain ½X, ¼X, ⅛X and 1/16X rates of the high rate. Compound requirements are based upon a 12 mL application volume at a rate of 187 liters per hectare (L/ha). Formulated compounds were applied to the plant material with an overhead Mandel track sprayer equipped with 8002E nozzles calibrated to deliver 187 L/ha over an application area of 0.503 square meters (m^2) at a spray height of 18 inches ([…]) above the average plant canopy height. Control plants were sprayed in the same manner with the solvent blank.
(§3) Treatments consisted of the methyl ester of 4-amino-3-chloro-6-(4-chloro-2-fluoro-3-methoxyphenyl)pyridine-2-carboxylic acid (Cmpd 1) as technical grade material and fluazifop-P-butyl (Fusilade® DX), haloxyfop-P-methyl (GALLANT® super), and quizalofop-P-ethyl (Assure® II) alone and in combination. The form of compound of formula (I) and fluazifop-P-butyl, haloxyfop-P-methyl, and quizalofop-P-ethyl were applied on an acid equivalent basis.
(§4) The treated plants and control plants were placed in a greenhouse as described above and watered by subirrigation to prevent wash-off of the test compounds. After 14 d, the condition of the test plants as compared with that of the untreated plants was determined visually and scored on a scale of 0 to 100 percent where 0 corresponds to no injury and 100 corresponds to complete kill.
(§5) Results of testing mixtures in accordance with this disclosure and of the components of the mixtures separately against various common weeds in greenhouse trials are reported in the following tables. The reported values are of percent (%) control or percent (%) injury, visually rated. Colby's equation was used to determine the herbicidal effects expected from the mixtures (Colby, S. R. Calculation of the synergistic and antagonistic response of herbicide combinations. Weeds 1967, 15, 20-22.).
(§6) More specifically, the following equation was used to calculate the expected activity of mixtures containing two active ingredients, A and B:
(§7) A=observed efficacy of active ingredient A at the same concentration as used in the mixture; B=observed efficacy of active ingredient B at the same concentration as used in the mixture. […]

[2] = tested on: BRSNW Brassica napus (winter oilseed rape)
Protocol: as §1, §2, §3, §4, §5, §6, §7

[3] = tested on: IPOHE Ipomoea hederacea (L.) Jacq. (ivyleaf momingglory)
Protocol: as §1, §2, §3, §4, §5, §6, §7

[4] = tested on: VIOTR Viola tricolor L. (wild violet)
Protocol: as §1, §2, §3, §4, §5, §6, §7

[5] = tested on: STEME Stellaria media (L.) Vill. (common chickweed)
Protocol: as §1, §2, §3, §4, §5, §6, §7

[6] = tested on: CHEAL Chenopodium album L. (common lambsquarters)
Protocol: as §1, §2, §3, §4, §5, §6, §7

[7] = tested on: CIRAR Cirsium arvense (L.) Scop. (Canada thistle)
Protocol: as §1, §2, §3, §4, §5, §6, §7

Measured: Visual Growth Reduction (%) 14 DAA Obs

CCOC(=O)[C@@H](C)Oc1ccc(Oc2cnc3cc(Cl)ccc3n2)cc1 [Quizalofop-P-ethyl, quizalofop-P-ethyl]
0%: [1]; Quizalofop-P 37.5 g ae/ha | [1]; Quizalofop-P 75 g ae/ha | [1]; Quizalofop-P 150 g ae/ha | [2]; Quizalofop-P 37.5 g ae/ha | [2]; Quizalofop-P 75 g ae/ha | [2]; Quizalofop-P 150 g ae/ha | [3]; Quizalofop-P 37.5 g ae/ha | [3]; Quizalofop-P 75 g ae/ha | [3]; Quizalofop-P 150 g ae/ha | [4]; Quizalofop-P 37.5 g ae/ha | [4]; Quizalofop-P 75 g ae/ha | [4]; Quizalofop-P 150 g ae/ha | [5]; Quizalofop-P 37.5 g ae/ha | [5]; Quizalofop-P 75 g ae/ha | [5]; Quizalofop-P 150 g ae/ha | [6]; Quizalofop-P 37.5 g ae/ha | [6]; Quizalofop-P 75 g ae/ha | [6]; Quizalofop-P 150 g ae/ha | [7]; Quizalofop-P 37.5 g ae/ha | [7]; Quizalofop-P 75 g ae/ha | [7]; Quizalofop-P 150 g ae/ha
